Experimental data taken from patent US20250144067A1, “PERSONALIZED STARVATION THERAPY FOR CANCER” (Faeth Therapeutics, Inc., priority 2021, published 2025).
Where a name gives a salt, the structure may show the parent alone. Read-outs that look alike come from different tables or passages of the source. Numbered stars: 1 amine (or outer) side, 2 acyl side, 3 side chain; on linkers, the order of the positions; unused ones are H or OH. Bridge positions count the residues as written; N and C are the ends. Square brackets hold non-standard residues; d marks the D form. Peptide text beside a SMILES is read from it. * marks the point of attachment. hTyr(3S-OH,4S-OH,3'-OSO3H) = N[C@H](C(=O)O)[C@H](O)[C@@H](O)c1ccc(O)c(OS(=O)(=O)O)c1; Orn(4R-OH,5R-OH) = O=C([C@H](C[C@@H](O)[C@@H](O)N[*:3])N[*:1])[*:2]; Pro(3S-OH,4S-Me) = C[C@H]1CN[C@H](C(=O)O)[C@H]1O; X1 = CCCCCOc1ccc(-c2cc(-c3ccc(C(=O)*)cc3)no2)cc1; Gln(3R-OH) = NC(=O)C[C@@H](O)[C@H](N)C(=O)O; Hyp = O=C(O)[C@@H]1C[C@@H](O)CN1

Columns and labels:
[1] = tested on: NCI-H292 lung cancer cells; test: FDA drug screening, complete media vs cholesterol-free media with simvastatin (TABLE 2); assay type: cell-based, human
[2] = tested on: NCI-H292 lung cancer cells; test: FDA drug screening, complete media vs cholesterol-free media without statin (TABLE 1); assay type: cell-based, human
[3] = NCI-H292 cells, drug in cholesterol-free media with simvastatin 0.04 μM
[4] = NCI-H292 cells, drug in complete media
[5] = complete media vs cholesterol-free media + simvastatin (0.04 μM), >0 enhanced anti-cancer activity, about 0 neutral, <0 antagonist
[6] = NCI-H292 cells, cholesterol-free media without statin
[7] = complete vs cholesterol-free media, greater than 0 enhanced anti-cancer activity, about 0 neutral, below 0 antagonists
[8] = NCI-H292 cells, FDA library drug in cholesterol-free media with simvastatin 0.04 μM
[9] = NCI-H292 cells, FDA library drug in complete media
[10] = Complete minus Cholesterol-free, greater than 0 enhanced anti-cancer activity, about 0 neutral, below 0 antagonist
[11] = NCI-H292 cells, FDA drug library screen, cholesterol-free media without statin
[12] = NCI-H292 cells, FDA drug library screen, complete media
[13] = Complete minus Cholesterol-free, >0 enhanced anti-cancer activity, about 0 neutral, <0 antagonist
[14] = NCI-H292 cells, cholesterol-free media with simvastatin 0.04 μM, FDA drug library screen (TABLE 2)
[15] = NCI-H292 cells, complete media, FDA drug library screen (TABLE 2)
[16] = complete media minus cholesterol-free media + simvastatin (0.04 μM), >0 enhanced anti-cancer activity, about 0 neutral, <0 antagonist
[17] = complete media vs cholesterol-free media + simvastatin (0.04 μM), […]
[18] = NCI-H292 cells, cholesterol-free media without statin, FDA drug library screen
[19] = NCI-H292 cells, complete media, FDA drug library screen
[20] = NCI-H292 cells, FDA drug library screen, cholesterol-free media with simvastatin 0.04 μM
[21] = complete media minus cholesterol-free media + simvastatin, >0 enhanced anti-cancer activity, about 0 neutral, <0 antagonist
[22] = Complete minus Cholesterol-free, greater than 0 enhanced anti-cancer activity, about 0 neutral, below 0 antagonists
[23] = NCI-H292 cells in complete media
[24] = complete vs cholesterol-free media, >0 enhanced anti-cancer activity, about 0 neutral, <0 antagonist
[25] = Complete minus Cholesterol-free, […]
[26] = NCI-H292 cells in cholesterol-free media without statin

Molecule: CC(C)(C)NCC(O)COc1ccccc1C1CCCC1 (single isomer, unassigned; (+)) [(+)-Penbutolol]
- Cholesterol-free media + simvastatin (0.04 μM) [1, 3]: 1.153
- Complete Media [1, 4]: 0.9518
- Difference [1, 5]: −0.20
- Cholesterol-free [2, 6]: 1.349
- Complete ([2]; NCI-H292 cells, complete media): 1.014
- Difference [2, 7]: −0.33

Molecule: NC(=O)CCC(N)C(=O)O (racemic) [DL-Glutamine]
- Cholesterol-free media + simvastatin (0.04 μM) [1, 8]: 0.9407
- Complete Media [1, 9]: 0.6307
- Difference [1, 5]: −0.31
- Difference [2, 10]: −0.07
- Cholesterol-free [2, 11]: 1.771
- Complete [2, 12]: 1.698

Molecule: CSCC1CN(/N=C/c2ccc([N+](=O)[O-])o2)C(=O)O1 (stereo not drawn) [Nifuratel]
- Cholesterol-free media + simvastatin (0.04 μM) [1, 8]: 1.397
- Complete Media [1, 9]: 1.12
- Difference [1, 5]: −0.28
- Difference [2, 13]: −0.23
- Cholesterol-free [2, 6]: 1.253
- Complete ([2]; NCI-H292 cells, complete media): 1.019

Molecule: Cn1c(=O)c2c(ncn2CC(=O)O)n(C)c1=O [Acefylline]
- Cholesterol-free media + simvastatin (0.04 μM) [1, 14]: 1.078
- Complete Media [1, 15]: 1.058
- Difference [1, 16]: −0.02
- Difference [2, 13]: −0.31
- Cholesterol-free [2, 6]: 1.455

Molecule: Guanethidine (sulfate)
- Cholesterol-free media + simvastatin (0.04 μM) [1]: 1.914
- Complete Media [1]: 1.674
- Difference [1]: −0.24
- Cholesterol-free [2]: 1.619
- Complete [2]: 1.336
- Difference [2]: −0.28

Molecule: CCCCCOc1ccc(-c2cc(-c3ccc(C(=O)N[C@H]4C[C@@H](O)[C@@H](O)NC(=O)[C@@H]5[C@@H](O)[C@@H](C)CN5C(=O)[C@H]([C@H](O)CC(N)=O)NC(=O)[C@H]([C@H](O)[C@@H](O)c5ccc(O)c(OS(=O)(=O)O)c5)NC(=O)[C@@H]5C[C@@H](O)CN5C(=O)[C@H]([C@@H](C)O)NC4=O)cc3)no2)cc1 [Micafungin (sodium)] (X1-[Orn(4R-OH,5R-OH)]T[Hyp][hTyr(3S-OH,4S-OH,3'-OSO3H)][Gln(3R-OH)][Pro(3S-OH,4S-Me)]; lactam 1-C)
- Cholesterol-free media + simvastatin (0.04 μM) [1, 8]: 2.204
- Complete Media [1, 9]: 1.774
- Difference [1, 17]: −0.43
- Cholesterol-free [2, 18]: 1.036
- Complete [2, 19]: 1.188
- Difference ([2]; complete vs cholesterol-free media, […]): 0.15

Molecule: CC(C)(C)NCC(O)c1ccccc1Cl (stereo not drawn) [Tulobuterol (hydrochloride)]
- Cholesterol-free media + simvastatin (0.04 μM) [1, 20]: 1.041
- Complete Media [1, 12]: 1.605
- Difference [1, 21]: 0.56
- Difference [2, 22]: −0.62
- Complete [2, 23]: 0.9988

Molecule: CC1=C(C/C=C(\C)CCC[C@H](C)CCC[C@H](C)CCCC(C)C)C(=O)c2ccccc2C1=O [Vitamin K1]
- Cholesterol-free media + simvastatin (0.04 μM) [1, 8]: 1.062
- Complete Media [1, 9]: 0.6359
- Difference [1, 5]: −0.43
- Cholesterol-free [2, 18]: 0.9273
- Complete [2, 19]: 1.412
- Difference [2, 24]: 0.48

Molecule: CN(C)CCc1c[nH]c2ccc(Cn3cncn3)cc12.O=C(O)c1ccccc1 [Rizatriptan (benzoate)]
- Cholesterol-free media + simvastatin (0.04 μM) [1, 20]: 1.054
- Complete Media [1, 12]: 0.9799
- Difference [1, 17]: −0.07
- Difference [2, 25]: 0.02
- Cholesterol-free [2, 18]: 0.4266
- Complete [2, 19]: 0.447

Molecule: c1ccc2c(CC3=NCCN3)cccc2c1 [Naphazoline (hydrochloride)]
- Cholesterol-free media + simvastatin (0.04 μM) [1, 14]: 0.7495
- Complete Media [1, 15]: 0.6802
- Difference [1, 16]: −0.07
- Difference [2, 13]: −0.26
- Cholesterol-free [2, 6]: 1.189
- Complete ([2]; NCI-H292 cells, complete media): 0.9279

Molecule: COC(=O)C1=C(C)NC(C)=C(C(=O)OC)C1c1ccccc1[N+](=O)[O-] [Nifedipine]
- Cholesterol-free media + simvastatin (0.04 μM) [1, 20]: 1.819
- Complete Media [1, 12]: 1.696
- Difference [1, 5]: −0.12
- Difference [2, 22]: −0.53
- Cholesterol-free [2, 26]: 1.45
- Complete [2, 23]: 0.9229

Molecule: CCN1CCN(C(=O)N[C@@H](C(=O)N[C@@H]2C(=O)N3C(C(=O)O)=C(CSc4nnnn4C)CS[C@H]23)c2ccc(O)cc2)C(=O)C1=O [Cefoperazone (sodium salt)]
- Cholesterol-free media + simvastatin (0.04 μM) [1, 3]: 1.213
- Complete Media [1, 4]: 0.9749
- Difference [1, 5]: −0.24
- Cholesterol-free [2, 18]: 1.002
- Difference [2, 24]: 0.17

Molecule: Nc1nc2[nH]cc(CCc3ccc(C(=O)N[C@@H](CCC(=O)O)C(=O)O)cc3)c2c(=O)[nH]1 [Pemetrexed (disodium hemipenta hydrate)]
- Cholesterol-free media + simvastatin (0.04 μM) [1, 14]: 0.2685
- Complete Media [1, 15]: 0.2746
- Difference [1, 16]: 0.01
- Cholesterol-free [2, 18]: 0.09445
- Complete [2, 19]: 0.1693
- Difference [2, 24]: 0.07

Molecule: CC(C)[C@H](N)C(=O)OCC(CO)OCn1cnc2c(=O)nc(N)[nH]c21 (stereo partly drawn) [Valganciclovir (hydrochloride)]
- Cholesterol-free media + simvastatin (0.04 μM) [1, 20]: 0.9599
- Complete Media [1, 12]: 1.178
- Difference [1, 21]: 0.22
- Difference [2, 13]: −0.03
- Cholesterol-free [2, 18]: 1.042
- Complete [2, 19]: 1.007

Molecule: CC(C)n1c(/C=C/C(O)CC(O)CC(=O)O)c(-c2ccc(F)cc2)c2ccccc21 (stereo not drawn) [Fluvastatin (sodium)]
- Cholesterol-free media + simvastatin (0.04 μM) [1, 20]: 0.3266
- Complete Media [1, 12]: 0.199
- Difference [1, 5]: −0.13
- Difference [2, 13]: −0.22
- Cholesterol-free [2, 6]: 0.3896
- Complete ([2]; NCI-H292 cells, complete media): 0.168

Molecule: CCN1CC(CCN2CCOCC2)C(c2ccccc2)(c2ccccc2)C1=O (stereo not drawn) [Doxapram (hydrochloride hydrate)]
- Cholesterol-free media + simvastatin (0.04 μM) [1, 20]: 0.894
- Complete Media [1, 12]: 1.128
- Difference [1, 21]: 0.23
- Difference [2, 22]: −1.01
- Cholesterol-free [2, 26]: 2.003
- Complete [2, 23]: 0.9924

Molecule: CC(COc1ccccc1)NC(C)C(O)c1ccc(O)cc1 (stereo not drawn) [Isoxsuprine hydrochloride]
- Cholesterol-free media + simvastatin (0.04 μM) [1, 3]: 0.8873
- Complete Media [1, 4]: 0.6774
- Difference [1, 5]: −0.21
- Cholesterol-free [2, 6]: 1.314
- Complete ([2]; NCI-H292 cells, complete media): 0.939
- Difference [2, 7]: −0.38

Molecule: Cl.NCC(=O)CCC(=O)O [5-Aminolevulinic acid (hydrochloride)]
- Cholesterol-free media + simvastatin (0.04 μM) [1, 20]: 1.091
- Complete Media [1, 12]: 1.01
- Difference [1, 17]: −0.08
- Difference [2, 25]: −0.75
- Cholesterol-free [2, 26]: 1.604
- Complete [2, 23]: 0.8558

Molecule: Cc1ccc(C(=O)c2cc(O)c(O)c([N+](=O)[O-])c2)cc1 [Tolcapone]
- Cholesterol-free media + simvastatin (0.04 μM) [1, 3]: 1.114
- Complete Media [1, 4]: 0.8994
- Difference [1, 5]: −0.21
- Difference [2, 10]: −0.19
- Cholesterol-free [2, 11]: 1.149
- Complete [2, 12]: 0.9627

Molecule: Hemin
- Cholesterol-free media + simvastatin (0.04 μM) [1, 14]: 1.178
- Complete Media [1, 15]: 1.151
- Difference ([1]; complete media minus cholesterol-free media + simvastatin (0.04 μM), […]): −0.03
- Difference [2, 25]: −0.04
- Cholesterol-free [2, 18]: 0.9968
- Complete [2, 19]: 0.96

Molecule: C=CCOc1ccccc1OCC(O)CNC(C)C (stereo not drawn) [Oxprenolol (hydrochloride)]
- Cholesterol-free media + simvastatin (0.04 μM) ([1]; NCI-H292 cells, cholesterol-free media with simvastatin 0.04 μM, cell growth value in FDA drug screen): 0.8718
- Complete Media ([1]; NCI-H292 cells, complete media, cell growth value in FDA drug screen): 0.9135
- Difference [1, 21]: 0.04
- Cholesterol-free [2, 18]: 1.177
- Complete [2, 19]: 1.262
- Difference [2, 24]: 0.09

Molecule: COc1cc(NS(C)(=O)=O)ccc1Nc1c2ccccc2nc2ccccc12 [Amsacrine (hydrochloride)]
- Cholesterol-free media + simvastatin (0.04 μM) [1, 8]: 0.8278
- Complete Media [1, 9]: 0.3873
- Difference [1, 5]: −0.44
- Difference [2, 13]: 0.00
- Cholesterol-free [2, 18]: 0.2374
- Complete [2, 19]: 0.2416
